The values below come from ChEMBL document CHEMBL4024722, “Discovery of acylguanidine oseltamivir carboxylate derivatives as potent neuraminidase inhibitors” (Bioorg Med Chem, 2017).

Where only a bound is given, the exact number is not on record here.

A short description of data set [1]: Inhibition of Influenza A virus (A/Puerto Rico/8/1934(H1N1)) neuraminidase using 4-MU-NANA as substrate preincubated for 10 mins followed by substrate addition measured after 1 hr by fluorescence assay.
A short description of data set [2]: Inhibition of Influenza A virus (A/Hong Kong/498/97(H3N2)) neuraminidase using 4-MU-NANA as substrate preincubated for 10 mins followed by substrate addition measured after 1 hr by fluorescence assay.
Data set [3] is described as follows: Cytotoxicity against MDCK cells after 72 hrs by Alamar-Blue assay. In kind it is cell-based, Canis lupus familiaris. To be noted: dog. In general terms: The colour change of resazurin is a common sign of viable cells or microbes.

Broadly, the IC50 is the midpoint of a concentration-inhibition curve. A higher IC50 goes with weaker potency in that assay. In the case of `CCC(CC)O[C@@H]1C=C(C(=O)O)C[C@H](NC(=N)NC(=O)c2ccc(C)cc2)[C@H]1NC(C)=O`, the IC50 in data set [1] and in data set [2] was greater than 1 µM each time.

Regarding `CCC(CC)O[C@@H]1C=C(C(=O)O)C[C@H](NC(=N)NC(=O)c2ccc(OC)cc2)[C@H]1NC(C)=O`, the IC50 in data set [1] was determined as 0.0686 µM; in data set [2], 0.215 µM.

The term CC50 denotes the concentration at which the toxic effect on the cells reaches its halfway point. In the case of `CCC(CC)O[C@@H]1C=C(C(=O)O)C[C@H](NC(=N)NC(=O)CCc2ccc(OC)c(OC)c2)[C@H]1NC(C)=O`, the IC50 in data set [1] worked out at 0.00143 µM; in data set [2], 0.00364 µM. For the same compound, the CC50 at 72 h in data set [3] was greater than 1 µM.

For `CCCC(=O)NC(=N)N[C@H]1CC(C(=O)O)=C[C@@H](OC(CC)CC)[C@@H]1NC(C)=O`, the results for the IC50 in data set [1] and in data set [2] were 0.0348 µM and 0.0112 µM, respectively.

Consider `CCC(CC)O[C@@H]1C=C(C(=O)O)C[C@H](NC(=N)NC(=O)c2ccc([N+](=O)[O-])cc2)[C@H]1NC(C)=O`, for which the figures for the IC50 in data set [1] and in data set [2] were 0.0201 µM and 0.0142 µM, respectively. In data set [3], the CC50 at 72 h was greater than 1 µM.

On to `CCC(CC)O[C@@H]1C=C(C(=O)O)C[C@H](NC(=N)NC(=O)c2cccc(OC)c2)[C@H]1NC(C)=O`, for which the concentration for half-maximal inhibition (IC50) in data set [1] worked out at 0.175 µM; in data set [2], 0.533 µM.

Consider `CCC(CC)O[C@@H]1C=C(C(=O)O)C[C@H](NC(=N)NC(=O)c2ccccc2Br)[C@H]1NC(C)=O`, for which the IC50 in data set [1] and in data set [2] was greater than 1 µM in each case.

Turning to `CCC(CC)O[C@@H]1C=C(C(=O)O)C[C@H](NC(=N)NC(=O)c2ccccc2C(F)(F)F)[C@H]1NC(C)=O`, the IC50 in data set [1] was greater than 1 µM; in data set [2] it was 0.911 µM.

With `CCC(CC)O[C@@H]1C=C(C(=O)O)C[C@H](NC(=N)NC(=O)CCc2ccccc2)[C@H]1NC(C)=O`, the IC50 turned out to be 0.0301 µM in data set [1] and 0.0094 µM in data set [2].

Turning to `CCC(CC)O[C@@H]1C=C(C(=O)O)C[C@H](NC(=N)NC(=O)CCc2cccnc2)[C@H]1NC(C)=O`, the IC50 in data set [1] is 0.0102 µM; in data set [2], 0.0146 µM.

For the compound `CCC(CC)O[C@@H]1C=C(C(=O)O)C[C@H](NC(=N)NC(=O)Cc2ccc(C)cc2)[C@H]1NC(C)=O`, the IC50 was found to be 0.0294 µM in data set [1] and 0.0095 µM in data set [2].

As for `CCCCC(=O)NC(=N)N[C@H]1CC(C(=O)O)=C[C@@H](OC(CC)CC)[C@@H]1NC(C)=O`, the IC50 in data set [1] was 0.037 µM; in data set [2], 0.006 µM.

Consider `CCC(=O)NC(=N)N[C@H]1CC(C(=O)O)=C[C@@H](OC(CC)CC)[C@@H]1NC(C)=O`, for which the IC50 in data set [1] is 0.0391 µM; in data set [2], 0.0114 µM. For the same compound, the CC50 at 72 h in data set [3] was greater than 1 µM.

Take `CCC(CC)O[C@@H]1C=C(C(=O)O)C[C@H](NC(=N)NC(=O)c2ccccc2O)[C@H]1NC(C)=O`: the IC50 is 0.0498 µM in data set [1] and 0.185 µM in data set [2].

For `CCC(CC)O[C@@H]1C=C(C(=O)O)C[C@H](NC(=N)NC(=O)c2ccccc2)[C@H]1NC(C)=O`, the IC50 amounted to 0.574 µM in data set [1] and 0.334 µM in data set [2].

As for `CCC(CC)O[C@@H]1C=C(C(=O)O)C[C@H](NC(=N)NC(=O)c2cccc(C(F)(F)F)c2)[C@H]1NC(C)=O`, the IC50 in data set [1] came out at 0.216 µM; in data set [2], 0.0761 µM.

`CCC(CC)O[C@@H]1C=C(C(=O)O)C[C@H](NC(=N)NC(=O)CC(C)C)[C@H]1NC(C)=O`: the results for the IC50 in data set [1] and in data set [2] were 0.0883 µM and 0.0184 µM, respectively.

In the case of `CCC(CC)O[C@@H]1C=C(C(=O)O)C[C@H](NC(=N)NC(=O)Cc2ccccc2C)[C@H]1NC(C)=O`, the values for the IC50 in data set [1] and in data set [2] were 0.0865 µM and 0.0228 µM, respectively.

For `C=CCCC(=O)NC(=N)N[C@H]1CC(C(=O)O)=C[C@@H](OC(CC)CC)[C@@H]1NC(C)=O`, the 50% inhibitory concentration (IC50) in data set [1] came out at 0.0081 µM; in data set [2], 0.0054 µM. For the same compound, the CC50 at 72 h in data set [3] was greater than 1 µM.

Turning to `CCC(CC)O[C@@H]1C=C(C(=O)O)C[C@H](NC(=N)NC(=O)c2cc(C)cc(C)c2)[C@H]1NC(C)=O`, the IC50 in data set [1] turned out to be 0.155 µM; in data set [2], 0.159 µM.

For `CCC(CC)O[C@@H]1C=C(C(=O)O)C[C@H](NC(=N)NC(=O)c2ccncc2)[C@H]1NC(C)=O`, the IC50 in data set [1] was found to be 0.0152 µM; in data set [2], 0.0161 µM.

Regarding `CCC(CC)O[C@@H]1C=C(C(=O)O)C[C@H](NC(=N)NC(=O)c2ccccc2C)[C@H]1NC(C)=O`, the IC50 in data set [1] and in data set [2] was greater than 1 µM throughout.

With `CCC(CC)O[C@@H]1C=C(C(=O)O)C[C@H](NC(=N)NC(=O)c2cccc(C)c2)[C@H]1NC(C)=O`, the IC50 came to 0.0115 µM in data set [1] and 0.0195 µM in data set [2].

As for `CCC(CC)O[C@@H]1C=C(C(=O)O)C[C@H](NC(=N)NC(=O)CCCc2ccccc2)[C@H]1NC(C)=O`, the results for the IC50 in data set [1] and in data set [2] were 0.0649 µM and 0.0214 µM, respectively.

For `CCC(CC)O[C@@H]1C=C(C(=O)O)C[C@H](NC(=N)NC(=O)Cc2ccc(Br)cc2)[C@H]1NC(C)=O`, the IC50 was 0.0145 µM in data set [1] and 0.008 µM in data set [2]. Further, in data set [3], the 50% cytotoxic concentration (CC50) at 72 h was greater than 1 µM.

Take `CCC(CC)O[C@@H]1C=C(C(=O)O)C[C@H](NC(=N)NC(=O)C(C)C)[C@H]1NC(C)=O`: the IC50 in data set [1] was found to be 0.0382 µM; in data set [2], 0.0137 µM.

On to `CCC(CC)O[C@@H]1C=C(C(=O)O)C[C@H](NC(=N)NC(=O)Cc2ccc3ccccc3c2)[C@H]1NC(C)=O`, for which the IC50 in data set [1] came to 0.0211 µM; in data set [2] it was 0.0072 µM. In data set [3], this compound displayed a CC50 at 72 h greater than 1 µM.

For the compound `CCC(CC)O[C@@H]1C=C(C(=O)O)C[C@H](NC(=N)NC(=O)c2ccccc2OC)[C@H]1NC(C)=O`, the IC50 is 0.0535 µM in data set [1] and 0.125 µM in data set [2].
